{
  "source": "patent US10245249B2",
  "about": "“Pharmaceutical compositions comprising nitroxyl donors” (Cardioxyl Pharmaceuticals, Inc., priority 2013, dated 2019)",
  "key": {"[1]": {"system": "dogs", "experiment": "14-day continuous infusion tolerance studies of CXL-1020 in dogs", "assay_type": "in vivo", "method": "During in vivo trials of the nitroxyl donor CXL-1020 (N-hydroxy-2-methanesulfonylbenzene-1-sulfonamide), a 14-day study was conducted to evaluate tolerance in dogs treated with continuous infusions of CXL-1020 at dose rates of up to 90 μg/kg/min.\nTo further investigate this undesirable side-effect, a follow-up 14-day study in dogs was initiated."}, "[2]": {"experiment": "Concentrate storage stability, compound of formula (2) 30 mg/mL in 30% CAPTISOL pH 4.0 (Example 8)", "assay_type": "physicochemical", "set-up": "key to Appearance 0 h / Appearance 24 h / Appearance 72 h / Appearance 168 h: the term “c/c” refers to clear and colorless", "details": "for Concentration, mg/mL 0 h / Concentration, mg/mL 24 h / Concentration, mg/mL 72 h / Concentration, mg/mL 168 h: 30 mg/mL concentrate in 30% CAPTISOL pH 4.0; for Appearance 0 h / Appearance 24 h / Appearance 72 h / Appearance 168 h / Observed Degradant, Compound of Formula (101), mg/mL 0 h / Observed Degradant, Compound of Formula (101), mg/mL 24 h / Observed Degradant, Compound of Formula (101), mg/mL 72 h / Observed Degradant, Compound of Formula (101), mg/mL 168 h / pH 0 h / pH 24 h / pH 72 h / pH 168 h: concentrate", "method": "The storage stability of a liquid concentrate of the Compound of formula (2) (30 mg/mL) in the vehicle 30% CAPTISOL® (w/v) at pH 4.0, was assessed at 4° C. and 25° C. over 7 days, with time points after 1, 3 and 7 days. At each time point samples were assessed for visual appearance, pH, and concentration and purity by HPLC (XBridge Phenyl Column (Waters); UV absorbance detector at 272 nm; mobile phase a step gradient of aqueous acetonitrile containing 0.1% (v/v) formic acid).\nThe selected vehicle, CAPTISOL® (30% w/v) in water with pH adjusted to 4.0, was prepared by accurately weighing 30 grams of CAPTISOL® into a 150 mL beaker and dissolved with 45 mL of water. The pH was adjusted to pH 4.0 by addition of 0.1N HCl. Subsequently, the vehicle was transferred to a volumetric flask and brought to 100 mL final volume by addition of water. After incubation at a temperature of about 25° C. for 30 minutes, the pH of the vehicle was re-adjusted to pH 4.0 by addition of 0.1N HCl. The vehicle formed a clear, colorless solution.\nA concentrated solution of the compound of formula (2) was prepared as follows. A stir bar and 30 mL of vehicle were added to a 150 mL beaker. Approximately […] of the compound of formula (2) was dispensed and transferred to the beaker under low to medium stirring. After 45 minutes of stirring at a temperature of about 25° C. (protected from light), the concentrate formed a clear, colorless solution with some small, white clumps of the compound of formula (2) floating in solution. The remaining clumps were gently broken-up using a spatula. Following an additional 45 minutes of stirring, the concentrate formed a clear, colorless solution without any visible solids. The concentrate was then filtered (0.2 μm) through a 0.22 μm PVDF syringe filter.\nFor t=0 h testing, aliquots were distributed into vials and analyzed by HPLC (XBridge Phenyl Column (Waters); UV absorbance detector at 272 nm; mobile phase a step gradient of aqueous acetonitrile containing 0.1% (v/v) formic acid) and the sample pH was determined. Twelve aliquots of 1 mL of the concentrate were distributed into microcentrifuge tubes for storage at 4° C. and 25° C. After approximately 24, 72 and 168 hours of storage, two aliquots were removed from each storage condition and assessed for visual appearance, pH, and concentration and purity by HPLC. […] The pH of the samples stored at 4° C. and 25° C. decreased from 3.7 to 3.6 and 3.3, respectively, over the 7 days. In Table 12, the term “c/c” refers to clear and colorless."}},
  "note": "Several values for one entry are separate records, joined by “and”; a condition that tells them apart may be missing. Equal entries are not always repeated.",
  "data": [
    {"smiles": "CS(=O)(=O)c1ccccc1S(=O)(=O)NO", "note": "[CXL-1020, N-hydroxy-2-methanesulfonylbenzene-1-sulfonamide, reference compound]", "values": [
      {"measurement": "dose rate tolerated", "setting": "[1]; 14-day continuous infusion, dogs", "result": 60, "unit": "µg/kg/min"},
      {"measurement": "side effects in follow-up 14-day study", "setting": "[1]; dog, in vivo", "result": "significant swelling and inflammation in the dogs' hind limbs"}
    ]},
    {"smiles": "CS(=O)(=O)c1cccc(S(=O)(=O)NO)c1", "note": "[Compound 2, N-Hydroxy-3-methanesulfonylbenzene-1-sulfonamide]", "values": [
      {"measurement": "concentration sustained", "setting": "[2]; 4° C. and 25° C., over 7 days", "result": 30000, "unit": "µg/mL"},
      {"measurement": "known degradant (compound of formula (101))", "setting": "[2]; 4° C. and 25° C., over 7 days", "result": "No detectable levels"},
      {"measurement": "visual appearance of all samples", "setting": "[2]; 4° C. and 25° C., over 7 days", "result": "clear, colorless solutions"},
      {"measurement": "Concentration, mg/mL 0 h", "setting": "[2]; 4° C.", "result": 30.3, "unit": "mg/mL"},
      {"measurement": "Concentration, mg/mL 24 h", "setting": "[2]; 4° C.", "result": "30.6 mg/mL and 30.2 mg/mL"},
      {"measurement": "Concentration, mg/mL 72 h", "setting": "[2]; 4° C.", "result": "29.6 mg/mL and 29.4 mg/mL"},
      {"measurement": "Concentration, mg/mL 168 h", "setting": "[2]; 4° C.", "result": "29.7 mg/mL and 29.9 mg/mL"},
      {"measurement": "Appearance 0 h", "setting": "[2]; 4° C.", "result": "c/c"},
      {"measurement": "Appearance 24 h", "setting": "[2]; 4° C.", "result": "c/c"},
      {"measurement": "Appearance 72 h", "setting": "[2]; 4° C.", "result": "c/c"},
      {"measurement": "Appearance 168 h", "setting": "[2]; 4° C.", "result": "c/c"},
      {"measurement": "Observed Degradant, Compound of Formula (101), mg/mL 0 h", "setting": "[2]; 4° C.", "result": "No"},
      {"measurement": "Observed Degradant, Compound of Formula (101), mg/mL 24 h", "setting": "[2]; 4° C.", "result": "No"},
      {"measurement": "Observed Degradant, Compound of Formula (101), mg/mL 72 h", "setting": "[2]; 4° C.", "result": "No"},
      {"measurement": "Observed Degradant, Compound of Formula (101), mg/mL 168 h", "setting": "[2]; 4° C.", "result": "No"},
      {"measurement": "pH 0 h", "setting": "[2]; 4° C.", "result": "3.7 and 3.71"},
      {"measurement": "pH 24 h", "setting": "[2]; 4° C.", "result": 3.70},
      {"measurement": "pH 72 h", "setting": "[2]; 4° C.", "result": 3.66},
      {"measurement": "pH 168 h", "setting": "[2]; 4° C.", "result": "3.6 and 3.61 and 3.58"},
      {"measurement": "Concentration, mg/mL 0 h", "setting": "[2]; 25° C.", "result": 30.3, "unit": "mg/mL"},
      {"measurement": "Concentration, mg/mL 24 h", "setting": "[2]; 25° C.", "result": 30.2, "unit": "mg/mL"},
      {"measurement": "Concentration, mg/mL 72 h", "setting": "[2]; 25° C.", "result": "29.4 mg/mL and 29.8 mg/mL"},
      {"measurement": "Concentration, mg/mL 168 h", "setting": "[2]; 25° C.", "result": "29.5 mg/mL and 29.4 mg/mL"},
      {"measurement": "Appearance 0 h", "setting": "[2]; 25° C.", "result": "c/c"},
      {"measurement": "Appearance 24 h", "setting": "[2]; 25° C.", "result": "c/c"},
      {"measurement": "Appearance 72 h", "setting": "[2]; 25° C.", "result": "c/c"},
      {"measurement": "Appearance 168 h", "setting": "[2]; 25° C.", "result": "c/c"},
      {"measurement": "Observed Degradant, Compound of Formula (101), mg/mL 0 h", "setting": "[2]; 25° C.", "result": "No"},
      {"measurement": "Observed Degradant, Compound of Formula (101), mg/mL 24 h", "setting": "[2]; 25° C.", "result": "No"},
      {"measurement": "Observed Degradant, Compound of Formula (101), mg/mL 72 h", "setting": "[2]; 25° C.", "result": "No"},
      {"measurement": "Observed Degradant, Compound of Formula (101), mg/mL 168 h", "setting": "[2]; 25° C.", "result": "No"},
      {"measurement": "pH 0 h", "setting": "[2]; 25° C.", "result": 3.71},
      {"measurement": "pH 24 h", "setting": "[2]; 25° C.", "result": "3.47 and 3.48"},
      {"measurement": "pH 72 h", "setting": "[2]; 25° C.", "result": 3.34},
      {"measurement": "pH 168 h", "setting": "[2]; 25° C.", "result": "3.3 and 3.32"}
    ]}
  ]
}
